How the values were obtained:
[1] = system: PTH concentration in serum; test: PTH concentration in serum of vitamin D deficient rats after intravenous administration (radioimmunoassay); format: in vivo, rat; settings: for PTH conc.: mean ± standard error, n = 5
Procedure: The number of animals were five for one group.
The volume of administered liquid was 2 mL/kg.
(§1) The volume of administered solution was 2 mL/kg.

[2] = system: calcium concentration in serum; test: Calcium concentration in serum of vitamin D deficient rats after intravenous administration (OCPC method); settings: for Calcium conc. in serum: Table 4: vitamin D deficient rats; for Calcium conc. in serum / Calcium conc.: i.v., mean ± standard error, n = 5
Procedure: (§2) (1) Male Wistar rats of 4 weeks old were purchased from Japan SLC (SLC, Shizuoka prefecture). The rats were put into wire cages three for each cage and bred under the condition of 23±1° C. and 55±10% humidity by allowing the rats to free ingestion of a vitamin D deficient feed for animal breeding (Ca, 0.0036%; P, 0.3%; Harlan Teklad Research Diet, Madison, Wis., U.S.A.) and drinking water (well water treated with 0.4%±0.2 ppm hypochlorite) for 7 weeks. The number of animals were five for one group.
(§3) (2) As shown in the Table 2, the negative control group (Group 1) was administered with a solvent (5% ethanol/0.1% Triton X-100/physiological saline solution) and the positive control group (Group 2) was administered with 0.5 μg/kg of 1α,25-dihydroxyvitamin D3 by intravenous administration.
(§4) (2) As shown in the Table 3, the negative control group (Group 1) was administered with a solvent (5% ethanol/0.1% Triton X-100/physiological saline solution) and the positive control group (Group 2) was administered with 0.25 μg/kg of 1α,25-dihydroxyvitamin D3 by intravenous administration.
(§5) (2) As shown in the Table 4, the negative control group (Group 1) was administered with a solvent (5% ethanol/0.1% Triton X-100/physiological saline solution) and the positive control group (Group 2) was administered with 1α,25-dihydroxyvitamin D3 at a dose of 0.1 μg/kg, 0.5 μg/kg and 2.5 μg/kg by intravenous administration.

[3] = system: intestinal calcium absorption; test: Calcium absorption activity of the intestinal canal (duodenum) of vitamin D deficient rats, inverted gut sac method; format: in vivo, rat; design: Intestinal calcium absorption: unit not given here; settings: for Intestinal calcium absorption: Table 4: vitamin D deficient rats, i.v., Time 8 hrs, mean ± standard error, n = 5; for intestinal calcium absorption promoting activity: 8 hours, vitamin D deficient rats
Procedure: as §1
J. Physiol., vol.216, pp. 1351-1359, 1969.

[4] = system: calcium concentration in serum; settings: rat, in vivo
Procedure: as §2, §3, §4, §5

[5] = intravenous administration at a dose of 0.5 μg/kg, vitamin D deficient rats

In the case of C=C1/C(=C\C=C2/CCC[C@]3(C)[C@@H]([C@H](C)CCCC(C)(C)O)CC[C@@H]23)C[C@@H](O)C[C@@H]1O [1α,25-dihydroxyvitamin D3], the PTH conc. ([1]; Table 3: vitamin D deficient rats, i.v., Administration Rate 0.25, Time 8 hrs) was 459 ± 14 pg/ml serum, the “time after administration of the lowest level of PTH concentration in serum” value [1, 5] was 24 h and the PTH conc. ([1]; vitamin D deficient rats, i.v., Administration Rate 0.5, Time 4 hrs) was 458 ± 38 pg/ml serum. The PTH conc. ([1]; vitamin D deficient rats, i.v., Administration Rate 0.5, Time 8 hrs) was 399 ± 2 pg/ml serum, the PTH conc. ([1]; vitamin D deficient rats, i.v., Administration Rate 0.5, Time 24 hrs) was 325 ± 31 pg/ml serum and the PTH conc. ([1]; vitamin D deficient rats, i.v., Administration Rate 0.5, Time 48 hrs) was 488 ± 43 pg/ml serum. The PTH conc. ([1]; vitamin D deficient rats, i.v., Administration Rate 0.5, Time 72 hrs) was 555 ± 67 pg/ml serum, the “Calcium conc. in serum” value ([2]; Administration Rate 0.1 (mg/kg), Time 8 hrs) was 5.30 ± 0.10 mg/100 ml serum and the “Calcium conc. in serum” value ([2]; Administration Rate 0.5 (mg/kg), Time 8 hrs) was 5.90 ± 0.40 mg/100 ml serum. The “Calcium conc. in serum” value ([2]; Administration Rate 2.5 (mg/kg), Time 8 hrs) was 6.17 ± 0.07 mg/100 ml serum, the “time after administration of the maximum level of calcium concentration in serum” value [2, 5] was 8 h and the Calcium conc. ([2]; vitamin D deficient rats, Administration Rate 0.5 (mg/kg), Time 4 hrs) was 5.33 ± 0.09 mg/100 ml serum. For the same compound, the Calcium conc. ([2]; vitamin D deficient rats, Administration Rate 0.5 (mg/kg), Time 8 hrs) was 6.00 ± 0.17 mg/100 ml serum, the Calcium conc. ([2]; vitamin D deficient rats, Administration Rate 0.5 (mg/kg), Time 24 hrs) was 5.87 ± 0.22 mg/100 ml serum and the Calcium conc. ([2]; vitamin D deficient rats, Administration Rate 0.5 (mg/kg), Time 48 hrs) was 5.48 ± 0.15 mg/100 ml serum. For the same compound, the Calcium conc. ([2]; vitamin D deficient rats, Administration Rate 0.5 (mg/kg), Time 72 hrs) was 5.10 ± 0.18 mg/100 ml serum.

Compound C=C1CC(CC(C)C2CCC3C(=CC=C4CC(O)CC(O)C4=C)CCCC32C)OC1=O [Compound 11 (23S isomer), (23S)-25-dehydro-1α,25-dihydroxyvitamin D3-26,23-lactone] has a PTH conc. ([1]; Table 2: vitamin D deficient rats, i.v., Administration Rate 50, Time 4 hrs) of 354 ± 65 pg/ml serum, a PTH conc. ([1]; Table 2: vitamin D deficient rats, i.v., Administration Rate 50, Time 8 hrs) of 330 ± 72 pg/ml serum and a PTH conc. ([1]; Table 2: vitamin D deficient rats, i.v., Administration Rate 50, Time 24 hrs) of 319 ± 1 pg/ml serum. For the same compound, the PTH conc. ([1]; Table 2: vitamin D deficient rats, i.v., Administration Rate 50, Time 48 hrs) was 436 ± 51 pg/ml serum, the PTH conc. ([1]; Table 2: vitamin D deficient rats, i.v., Administration Rate 50, Time 72 hrs) was 528 ± 38 pg/ml serum and the PTH conc. ([1]; Table 3: vitamin D deficient rats, i.v., Administration Rate 2, Time 8 hrs) was 488 ± 47 pg/ml serum. The PTH conc. ([1]; Table 3: vitamin D deficient rats, i.v., Administration Rate 10, Time 8 hrs) was 385 ± 65 pg/ml serum, the PTH conc. ([1]; Table 3: vitamin D deficient rats, i.v., Administration Rate 50, Time 8 hrs) was 319 ± 56 pg/ml serum and the “PTH concentration in serum” value ([1]; intravenous administration at a dose of 10 μg/kg, vitamin D deficient rats (Example 1)) was “significantly lowered”. The “time after administration of the lowest level of PTH concentration in serum” value ([1]; intravenous administration at a dose of 50 μg/kg, vitamin D deficient rats) was 24 h, the “serum PTH concentration lowering action relative to the action of 1α,25-dihydroxyvitamin D3” value ([1]; ratio to 1α,25-dihydroxyvitamin D3, vitamin D deficient rats, i.v., 8 hours) was 1/12 and the “effect on PTH concentration in serum versus serum calcium concentration (conclusion in words)” value ([1]; vitamin D deficient rats, Examples 1, 2 and 3) was “effective for lowering the PTH concentration in serum without changing the calcium concentration in serum”. It also gave an Intestinal calcium absorption ([3]; Administration Rate 10 (mg/kg)) of 1.89 ± 0.04, an Intestinal calcium absorption ([3]; Administration Rate 50 (mg/kg)) of 2.32 ± 0.21 and an Intestinal calcium absorption ([3]; Administration Rate 250 (mg/kg)) of 2.53 ± 0.10. The “intestinal calcium absorption promoting activity” value ([3]; administration dose of from 50 μg/kg to 250 μg/kg i.v.) was “weak”, the “intestinal calcium absorption promoting activity” value ([3]; dose of 10 μg/kg i.v.) was “absolutely unobservable” and the calcium metabolism activity [4] was “absolutely unobservable”.

Source: patent US20050101574A1, “Parathyroid hormone production inhibitors containing vitamin d3 derivatives” (priority 2000, published 2005)
